{
  "source": "patent EP0908457B1",
  "about": "“3-(1,2-benzisothiazol- and isoxazol-5-Y1)-2,4(1H,3H)-pyrimidinedione or thione and 3-(1,2-benzisothiazol- and isoxazol-5-y1)-4(3H)-pyrimidinone or thione herbicidal agents” (BASF AKTIENGESELLSCHAFT, priority 1997, dated 1999)",
  "key": {"[1]": {"system": "Cyperus serotinus, Rottb.", "assay": "Preemergence weed control under flooded paddy conditions, CYPSE (Flatsedge); note: meaning of each grade not given here", "format": "in vivo", "conditions": "preemergence, rated three to four weeks after treatment"}, "[2]": {"system": "Echinochloa oryzoides (Ard.) Fritsch.", "assay": "Preemergence weed control under flooded paddy conditions, ECHORC (Watergrass (Calif.)); note: meaning of each grade not given here", "format": "in vivo", "conditions": "preemergence, flooded paddy, rated three to four weeks after treatment"}, "[3]": {"system": "Oryza sativa, (L.) Tebonnet", "assay": "Rice tolerance to post-transplant applications under flooded paddy conditions (Example 187), ORYSAT (Rice, Tebonnet)", "conditions": "rated three to four weeks after treatment"}, "Sagittaria pygmaea, L.": {"system": "Sagittaria pygmaea, L.", "assay": "Preemergence weed control under flooded paddy conditions, SAGPY (Arrowhead (Pygmaea)); note: meaning of each grade not given here", "format": "in vivo", "conditions": "preemergence, flooded paddy, rated three to four weeks after treatment"}, "Cyperus iria": {"system": "Cyperus iria", "assay": "Preemergence weed control under flooded paddy conditions, CYPIR (Rice Flatsedge); note: meaning of each grade not given here", "format": "in vivo", "conditions": "preemergence, flooded paddy, rated three to four weeks after treatment"}, "[4]": {"system": "Monochoria vaginalis, Presl.", "assay": "Preemergence weed control under flooded paddy conditions, MOOVA (Monochoria); note: meaning of each grade not given here", "format": "in vivo", "conditions": "preemergence, flooded paddy, rated three to four weeks after treatment"}},
  "data": [
    {"smiles": "COC(=O)C(C)Oc1ccc(C(C)C)cc1-c1nsc2ccc(-n3c(=O)cc(C(F)(F)F)n(C)c3=O)cc12", "note": "(centres unmarked) [Example 30, Methyl 2-{2-{5-[3,6-dihydro-3-methyl-4-(trifluoromethyl)-2,6-dioxo-1(2H)-pyrimidinyl]-1,2-benzisothiazol-3-yl}-4-isopropylphenoxy}propionate]", "values": [
      {"measurement": "herbicidal effect rating, CYPSE", "setting": "[1]; 0.0313 kg/ha", "result": 0.0},
      {"measurement": "herbicidal effect rating, CYPSE", "setting": "[1]; 0.0625 kg/ha", "result": 0.0},
      {"measurement": "herbicidal effect rating, CYPSE", "setting": "[1]; 0.1250 kg/ha", "result": 4.0},
      {"measurement": "herbicidal effect rating, CYPSE", "setting": "[1]; 0.2500 kg/ha", "result": 2.0},
      {"measurement": "herbicidal effect rating, ECHORC", "setting": "[2]; 0.0313 kg/ha", "result": 6.5},
      {"measurement": "herbicidal effect rating, ECHORC", "setting": "[2]; 0.0625 kg/ha", "result": 8.5},
      {"measurement": "herbicidal effect rating, ECHORC", "setting": "[2]; 0.1250 kg/ha", "result": 9.0},
      {"measurement": "herbicidal effect rating, ECHORC", "setting": "[2]; 0.2500 kg/ha", "result": 9.0},
      {"measurement": "herbicidal effect rating, ORYSAT (rice tolerance)", "setting": "[3]; 0.0313 kg/ha", "result": 2.0},
      {"measurement": "herbicidal effect rating, ORYSAT (rice tolerance)", "setting": "[3]; 0.0625 kg/ha", "result": 3.0},
      {"measurement": "herbicidal effect rating, ORYSAT (rice tolerance)", "setting": "[3]; 0.1250 kg/ha", "result": 3.0},
      {"measurement": "herbicidal effect rating, ORYSAT (rice tolerance)", "setting": "[3]; 0.2500 kg/ha", "result": 3.5},
      {"measurement": "herbicidal effect rating, SAGPY", "setting": "Sagittaria pygmaea, L.; 0.0313 kg/ha", "result": 0.0},
      {"measurement": "herbicidal effect rating, SAGPY", "setting": "Sagittaria pygmaea, L.; 0.0625 kg/ha", "result": 0.0},
      {"measurement": "herbicidal effect rating, SAGPY", "setting": "Sagittaria pygmaea, L.; 0.1250 kg/ha", "result": 2.0},
      {"measurement": "herbicidal effect rating, SAGPY", "setting": "Sagittaria pygmaea, L.; 0.2500 kg/ha", "result": 7.0},
      {"measurement": "herbicidal effect rating, CYPIR", "setting": "Cyperus iria; 0.0313 kg/ha", "result": 2.0},
      {"measurement": "herbicidal effect rating, CYPIR", "setting": "Cyperus iria; 0.0625 kg/ha", "result": 6.0},
      {"measurement": "herbicidal effect rating, CYPIR", "setting": "Cyperus iria; 0.1250 kg/ha", "result": 8.0},
      {"measurement": "herbicidal effect rating, CYPIR", "setting": "Cyperus iria; 0.2500 kg/ha", "result": 8.0},
      {"measurement": "herbicidal effect rating, MOOVA", "setting": "[4]; 0.0313 kg/ha", "result": 9.0},
      {"measurement": "herbicidal effect rating, MOOVA", "setting": "[4]; 0.0625 kg/ha", "result": 9.0},
      {"measurement": "herbicidal effect rating, MOOVA", "setting": "[4]; 0.1250 kg/ha", "result": 9.0},
      {"measurement": "herbicidal effect rating, MOOVA", "setting": "[4]; 0.2500 kg/ha", "result": 9.0}
    ]},
    {"smiles": "C=CCOc1ccc(C)cc1-c1nsc2ccc(-n3c(=O)cc(C(F)(F)F)n(C)c3=O)cc12", "note": "[Example 65, 3-{3-[6-(Allyloxy)-m-tolyl]-1,2-benzisothiazol-5-yl}-1-methyl-6-(trifluoromethyl)-2,4(1H,3H)-pyrimidinedione]", "values": [
      {"measurement": "herbicidal effect rating, CYPSE", "setting": "[1]; 0.0313 kg/ha", "result": 0.0},
      {"measurement": "herbicidal effect rating, CYPSE", "setting": "[1]; 0.0625 kg/ha", "result": 0.0},
      {"measurement": "herbicidal effect rating, CYPSE", "setting": "[1]; 0.1250 kg/ha", "result": 0.0},
      {"measurement": "herbicidal effect rating, CYPSE", "setting": "[1]; 0.2500 kg/ha", "result": 0.0},
      {"measurement": "herbicidal effect rating, ECHORC", "setting": "[2]; 0.0313 kg/ha", "result": 0.0},
      {"measurement": "herbicidal effect rating, ECHORC", "setting": "[2]; 0.0625 kg/ha", "result": 0.0},
      {"measurement": "herbicidal effect rating, ECHORC", "setting": "[2]; 0.1250 kg/ha", "result": 0.0},
      {"measurement": "herbicidal effect rating, ECHORC", "setting": "[2]; 0.2500 kg/ha", "result": 0.0},
      {"measurement": "herbicidal effect rating, ORYSAT (rice tolerance)", "setting": "[3]; 0.0313 kg/ha", "result": 0.0},
      {"measurement": "herbicidal effect rating, ORYSAT (rice tolerance)", "setting": "[3]; 0.0625 kg/ha", "result": 0.0},
      {"measurement": "herbicidal effect rating, ORYSAT (rice tolerance)", "setting": "[3]; 0.1250 kg/ha", "result": 0.0},
      {"measurement": "herbicidal effect rating, ORYSAT (rice tolerance)", "setting": "[3]; 0.2500 kg/ha", "result": 0.0},
      {"measurement": "herbicidal effect rating, SAGPY", "setting": "Sagittaria pygmaea, L.; 0.0313 kg/ha", "result": 0.0},
      {"measurement": "herbicidal effect rating, SAGPY", "setting": "Sagittaria pygmaea, L.; 0.0625 kg/ha", "result": 0.0},
      {"measurement": "herbicidal effect rating, SAGPY", "setting": "Sagittaria pygmaea, L.; 0.1250 kg/ha", "result": 0.0},
      {"measurement": "herbicidal effect rating, SAGPY", "setting": "Sagittaria pygmaea, L.; 0.2500 kg/ha", "result": 0.0},
      {"measurement": "herbicidal effect rating, CYPIR", "setting": "Cyperus iria; 0.0313 kg/ha", "result": 0.0},
      {"measurement": "herbicidal effect rating, CYPIR", "setting": "Cyperus iria; 0.0625 kg/ha", "result": 0.0},
      {"measurement": "herbicidal effect rating, CYPIR", "setting": "Cyperus iria; 0.1250 kg/ha", "result": 0.0},
      {"measurement": "herbicidal effect rating, CYPIR", "setting": "Cyperus iria; 0.2500 kg/ha", "result": 0.0},
      {"measurement": "herbicidal effect rating, MOOVA", "setting": "[4]; 0.0313 kg/ha", "result": 0.0},
      {"measurement": "herbicidal effect rating, MOOVA", "setting": "[4]; 0.0625 kg/ha", "result": 0.0},
      {"measurement": "herbicidal effect rating, MOOVA", "setting": "[4]; 0.1250 kg/ha", "result": 0.0},
      {"measurement": "herbicidal effect rating, MOOVA", "setting": "[4]; 0.2500 kg/ha", "result": 0.0}
    ]},
    {"smiles": "COc1ccc(C(C)C)cc1-c1nsc2ccc(-n3c(=O)cc(C(F)(F)F)n(C)c3=O)cc12", "note": "[Example 46, 3-[3-(5-Isopropyl-2-methoxyphenyl)-1,2-benzisothiazol-5-yl]-1-methyl-6-(trifluoromethyl)-2,4(1H,3H)-pyrimidinedione]", "values": [
      {"measurement": "herbicidal effect rating, CYPSE", "setting": "[1]; 0.0313 kg/ha", "result": 0.0},
      {"measurement": "herbicidal effect rating, CYPSE", "setting": "[1]; 0.0625 kg/ha", "result": 0.0},
      {"measurement": "herbicidal effect rating, CYPSE", "setting": "[1]; 0.2500 kg/ha", "result": 2.0},
      {"measurement": "herbicidal effect rating, ECHORC", "setting": "[2]; 0.0313 kg/ha", "result": 9.0},
      {"measurement": "herbicidal effect rating, ECHORC", "setting": "[2]; 0.0625 kg/ha", "result": 9.0},
      {"measurement": "herbicidal effect rating, ECHORC", "setting": "[2]; 0.1250 kg/ha", "result": 9.0},
      {"measurement": "herbicidal effect rating, ECHORC", "setting": "[2]; 0.2500 kg/ha", "result": 9.0},
      {"measurement": "herbicidal effect rating, ORYSAT (rice tolerance)", "setting": "[3]; 0.0313 kg/ha", "result": 1.0},
      {"measurement": "herbicidal effect rating, ORYSAT (rice tolerance)", "setting": "[3]; 0.0625 kg/ha", "result": 1.0},
      {"measurement": "herbicidal effect rating, ORYSAT (rice tolerance)", "setting": "[3]; 0.1250 kg/ha", "result": 2.0},
      {"measurement": "herbicidal effect rating, ORYSAT (rice tolerance)", "setting": "[3]; 0.2500 kg/ha", "result": 3.0},
      {"measurement": "herbicidal effect rating, SAGPY", "setting": "Sagittaria pygmaea, L.; 0.0313 kg/ha", "result": 0.0},
      {"measurement": "herbicidal effect rating, SAGPY", "setting": "Sagittaria pygmaea, L.; 0.0625 kg/ha", "result": 0.0},
      {"measurement": "herbicidal effect rating, SAGPY", "setting": "Sagittaria pygmaea, L.; 0.1250 kg/ha", "result": 2.0},
      {"measurement": "herbicidal effect rating, SAGPY", "setting": "Sagittaria pygmaea, L.; 0.2500 kg/ha", "result": 7.0},
      {"measurement": "herbicidal effect rating, CYPIR", "setting": "Cyperus iria; 0.0313 kg/ha", "result": 2.0},
      {"measurement": "herbicidal effect rating, CYPIR", "setting": "Cyperus iria; 0.0625 kg/ha", "result": 6.0},
      {"measurement": "herbicidal effect rating, CYPIR", "setting": "Cyperus iria; 0.1250 kg/ha", "result": 9.0},
      {"measurement": "herbicidal effect rating, CYPIR", "setting": "Cyperus iria; 0.2500 kg/ha", "result": 9.0},
      {"measurement": "herbicidal effect rating, MOOVA", "setting": "[4]; 0.0313 kg/ha", "result": 9.0},
      {"measurement": "herbicidal effect rating, MOOVA", "setting": "[4]; 0.0625 kg/ha", "result": 9.0},
      {"measurement": "herbicidal effect rating, MOOVA", "setting": "[4]; 0.1250 kg/ha", "result": 9.0},
      {"measurement": "herbicidal effect rating, MOOVA", "setting": "[4]; 0.2500 kg/ha", "result": 9.0}
    ]}
  ]
}
